# T1: S. cerevisiae pheromone receptor, Ste2p (Saccharomyces cerevisiae, UniProt D6VTK4)
# T1 sequence (D6VTK4 1-431): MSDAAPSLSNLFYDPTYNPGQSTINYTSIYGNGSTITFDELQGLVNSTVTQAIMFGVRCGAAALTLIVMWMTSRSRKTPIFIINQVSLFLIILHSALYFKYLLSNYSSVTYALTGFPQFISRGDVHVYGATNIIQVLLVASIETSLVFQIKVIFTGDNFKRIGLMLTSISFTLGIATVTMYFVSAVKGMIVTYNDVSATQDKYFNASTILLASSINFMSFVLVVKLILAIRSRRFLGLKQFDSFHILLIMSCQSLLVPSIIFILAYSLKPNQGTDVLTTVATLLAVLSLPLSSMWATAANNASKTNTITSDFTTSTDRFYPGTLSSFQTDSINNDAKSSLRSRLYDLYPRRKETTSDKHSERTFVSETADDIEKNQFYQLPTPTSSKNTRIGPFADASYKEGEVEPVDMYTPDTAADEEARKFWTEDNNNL
# T2: Ste2p (Saccharomyces cerevisiae, UniProt D6VTK4)
# T2 construct: CY 1638 (MATa far1*1442 tbt1-1 FUS1-HIS3 trp1ura3 leu2 his3 suc2); endogenous in cells; host or cells: S. cerevisiae CY 11643 (MATa, pho3 and pho4 disrupted, from CY 1638 via CY 9788), carrying PHO4/STE12 chimera plasmids or Cadus 4129
# T2 sequence (D6VTK4 1-431): T1 sequence (D6VTK4 1-431)
# B1: C5a: Human C5a is a 74 amino acid polypeptide that derives from the fifth component of complement (protein, UniProt P01031 678-751, looked up)
# C5a anaphylatoxin: TLQKKIEEIAAKYKHSVVKKCCYDGACVNNDETCEQRAARISLGPRCIKAFTECCVVASQLRANISHKDMQLGR
# modifications: C5a anaphylatoxin
# notes: Human C5a is a 74 amino acid polypeptide that derives from the fifth component of complement
# Legend:
# FPRL-1 = details: uM concentrations; cited from earlier work
# [1] = biological target: T1, S. cerevisiae pheromone receptor, Ste2p; test: Bar1 plate assay, agonist-induced Ste2p activation; format: cell-based
# Procedure: The cells were removed from the culture by filtration.
# Assay plates were prepared as follows. CY 579 cells were grown overnight in YEPD medium.
# Since CY 579 lacks the BAR1 gene, it is super-sensitive to α-factor causing its growth to be arrested on the YEPD+α-factor plate. If the conditioned media applied to the lawn contains Bar1p activity, the α-factor in that region is destroyed, allowing growth of the CY 579 cells.
# First, the gene encoding the S. cerevisiae Gα, GPA 1, was reintroduced into the genome of CY 8034 (MATa gpa1*1162 far1-1 ste2*1154 ste14::trp1::LYS2 fus1-HIS3 ura3 trp1 leu2 lys2 his3 ade2-1 met1) by transformation with an integrating plasmid encoding GPA1 (Cadus 3907), creating CY 11364. Next, the gene encoding the S. cerevisiae RGS protein, SST2, was disrupted in this strain to create CY 11645. Since Sst2p is involved in desensitization of the pheromone response pathway, its disruption results in increased signaling through the pathway (Reviewed by Sprague and Thorner in Molecular and Cellular Biology of the Yeast Saccharomyces. Vol. 2. 1992).
# A high copy number Ste2 expression plasmid was constructed as follows. […]
# (to OD600 0.4). […] A standard curve was also done with each experiment (described in Example 1) to quantitate the results.
# Ste2p = biological target: T2, Ste2p; test: Pho5p acid phosphatase activity in strains with PHO4/STE12 chimerae (Ste2p activation); format: cell-based, S. cerevisiae
# Procedure: were used to amplify the KanMX2 gene. The amplification product was flanked by sequences corresponding to the 5' and 3' ends of the PHO4 gene. […] Transformants were selected on YEPD+geneticin (200 μg/ml) plates. […] Cells were patched onto YEPD or phosphate-depleted YEPD plates and allowed to grow overnight. For each plate, a mixture of 2 ml of molten 1% agarose in 50 mM NaAc pH 4.0, 700 μl H2 O, and 300 μl α-napthyl acid phosphate (50 mg/ml) was prepared and applied to the plate. Then 1 ml of D-dianisidine fast blue salt B (50 mg/ml in 50 mM NaAc pH 4.0) was poured onto the plate. The degree of color development is a measure of acid phosphatase activity produced by the patch of cells.
# The PHO3 gene also encodes a secreted acid phosphatase, but its expression is not regulated by Pho4p. […] Since this gene is not essential and its presence would require that all assays be done under conditions of phosphate starvation, it was disrupted. Primers
# were used to amplify sequences in the 3' untranslated region of the PHO3 gene. The amplification product which bears an EcoRI site ate its 5' end and an XbaI site at its 3' end was digested with EcoRI and XbaI and gel purified.
# Cells were grown overnight in SD TRP- media. […] The cultures were split in half (2.5 ml each) and α-factor (25 μg) was added to one aliquot. After 2.5 hours at 30° C., the cells were collected by centrifugation, washed 3 times with H2 O, once with 50 mM NaAc pH 4.0, and resuspended in 250 μl 50 mM NaAc pH 4.0. […] 100 μl cells were added to 400 μl p-nitrophenyl phosphate (1 mg/ml in 50 mM NaAc pH 4.0). After 15 min at room temperature, 720 μl saturated NaCO3 was added to stop the reaction. The cells were removed by centrifugation and the optical density at 420 nm was determined.
# human C5a receptor [2] = test: Autocrine activation of pheromone pathway, growth read-out (fus1-HIS3); format: cell-based
# Excerpt: The strain used for this analysis, CY455 (MATα tbt1-1 ura3 leu2 trp1 his3 fus1-HIS3 can1 ste14::TRP1 ste3* 1156) contains the following significant modifications. A pheromone inducible HIS3 gene, fus1-HIS3, is integrated at the Fus1 locus. A hybrid gene containing sequence encoding the first 41 amino acids of GPA1 (the yeast Gα subunit) fused to sequence encoding human Gαi2a (minus codons for the N-terminal 33 amino acids) replaces GPA1 at its normal chromosomal location. The yeast STE14 gene is disrupted to lower the basal level of signaling through the pheromone response pathway. The yeast a-factor receptor gene, STE3, is deleted. The last two modifications are probably not essential, but appear to improve the signal-to-noise ratio.
# CY455 (MATα tbt1-1 ura3 leu2 trp1 his3 fus1-HIS3 can1 ste14::TRP1 ste3 * 1156) was transformed with the following plasmids:
# Cadus 1303+Cadus 1297=Receptor^+ Ligand^+ =(R+L+)
# Three colonies were picked from each transformation and grown overnight in media lacking leucine and uracil, at pH 6.8 with 25 mM PIPES (LEU URA pH6.8 with 25 mM PIPES). This media was made by adding 0.45 ml of sterile 1 M KOH and 2.5 ml of sterile 1M PIPES pH 6.8 to 100 ml of standard SD LEU- URA- media. […] The optical density at 600 nm of a 1/20 dilution of these cultures was determined and the cultures were diluted into 25 mM PIPES pH 6.8 to a final OD600 of 0.2. […]
# human C5a receptor [3] = test: Autocrine activation, fus1-lacZ beta-galactosidase; format: cell-based; details: R+L+ cells
# Procedure: CY878 (MATα tbt1-1 fus1-HIS3 caN1 ste14::trp1::LYS2 ste3* 1156 gpal(41)-Gαi2) was used as the starting strain for these experiments. This strain is a trp1 derivative of CY455. The transformants for this experiment contained CADUS 1584 (pRS424-fus1-lacZ) in addition to the receptor and ligand plasmids. Four strains were grown overnight in SD LEU URA TRP pH6.8 with 50 mM PIPES to an OD600 of less than 0.8. Assay of β-galactosidase activity can be done useing methods known in the art (Guarente 1983).
# induced HL60 cells = test: Competition with radiolabeled C5a for binding on induced HL60 cells; details: C5a expressed in yeast
# C5a receptor = details: data derived from mammalian cells; read-out: binding constant of C5a to its receptor; cited from earlier work
molecule,measurement,setting,value
CSCC[C@H](NC=O)C(=O)N[C@@H](CC(C)C)C(=O)N[C@@H](Cc1ccccc1)C(=O)O [f-Met-Leu-Phe],binding to fibroblasts transfected with FPRL-1 cDNA,FPRL-1,weak binding
α-factor,increase in Bar1p activity,"[1]; cells expressing Ste2p (CY 11728), α-factor 10 μg, 2 h, 30° C.",greater than 8 fold
same,Bar1p activity in conditioned media,[1]; cells lacking the Ste2p expression plasmid (CY 11727),Little or no Bar1p activity was detected
same,acid phosphatase activity inducible by pheromone,Ste2p; all strains expressing Pho4/Ste12 chimerae,pheromone-inducible acid phosphatase activity was observed
same,change of acid phosphatase activity on exposure to α-factor,Ste2p; cells expressing only the Pho4p DNA binding domain (CY11643+Cadus 4129),not increased by exposure to α-factor
same,Pho5p induction ratio,Ste2p; other chimerae with very low constitutive activity,5-10 fold
same,Pho5p induction ratio,Ste2p; two chimerae with high constitutive activity (printed Cadus 4184 and Cadus 4185),2-4 fold
B1,growth on selective plates lacking histidine,"human C5a receptor [2]; R+L+ strain, C5a expressed by the cell",show growth on the selective plates
same,aminotriazole concentration up to which the R+L+ strain will grow,human C5a receptor [2]; highest concentration tested,up to 5 mM
same,autocrine stimulation and β-galactosidase activity,human C5a receptor [3],results in autocrine stimulation and β-galactosidase activity
same,competition for binding with radiolabeled C5a,induced HL60 cells,shown to compete for binding
same,Kd,C5a receptor,1 nM

# — patent US6159705A, “Recombinant yeast cells for identifying receptor effectors” (Cadus Pharmaceutical Corporation, priority 1997, dated 2000)
